Results from paper PMC4909242, “Cyclization strategies of meditopes: affinity and diffraction studies of meditope–Fab complexes” (Acta Crystallographica. Section F, Structural Biology …, 2016).

Tested on: cetuximab IgG
Assay: Surface plasmon resonance binding kinetics of meditope variants to cetuximab
Conditions: SPR; for k a / k d: Biacore T100, cetuximab IgG amine-coupled to CM5 chip (5000 RU), HBS-EP+ pH 7.4, flow 30 µl min^−1; for k a: error <38% for values of variants marked ‡; for k d: off-rate independent of peptide concentration

| SMILES | k a [M^−1 s^−1 × 10^4] | k d [s⁻¹] | increase in affinity compared with the original meditope (ratio of K d to the original disulfide meditope) [fold] | decrease in the on-rate compared with the long meditope (ratio of k a) [fold] |
| --- | --- | --- | --- | --- |
| CC(C)C[C@@H]1NC(=O)[C@H](CCCNC(=N)N)NC(=O)[C@H](CCCNC(=N)N)NC(=O)[C@H]([C@@H](C)O)NC(=O)[C@H](CO)NC(=O)[C@H](CC(C)C)NC(=O)[C@H](CC(=O)O)NC(=O)[C@H](Cc2ccccc2)NC(=O)[C@H](CCC(N)=O)NC(=O)CCNC(=O)CCNC(=O)[C@H](CCCCN)NC1=O | 5.8 | 0.091 | – | – |
| CC(C)C[C@@H]1NC(=O)[C@H](CCCNC(=N)N)NC(=O)[C@H](CCCNC(=N)N)NC(=O)[C@H]([C@@H](C)O)NC(=O)[C@H](CO)NC(=O)[C@H](CC(C)C)NC(=O)[C@H](CC(=O)O)NC(=O)[C@H](Cc2ccccc2)NC(=O)[C@H](CCC(N)=O)NC(=O)[C@@H](N)CSSC[C@@H](C(N)=O)NC(=O)[C@H](CCCCN)NC1=O | 12 | 0.018 | – | – |
| CC(C)C[C@@H]1NC(=O)[C@H](CCCNC(=N)N)NC(=O)[C@H](CCCNC(=N)N)NC(=O)[C@H]([C@@H](C)O)NC(=O)[C@H](CO)NC(=O)[C@H](CC(C)C)NC(=O)[C@H](CC(=O)O)NC(=O)[C@H](Cc2ccccc2)NC(=O)[C@H](CCC(N)=O)NC(=O)CCCCCCNC(=O)[C@H](CCCCN)NC1=O | 3.8 | 0.064 | – | – |
| CC(=O)N[C@H]1CSSC[C@@H](C(N)=O)NC(=O)[C@H](CCCCN)NC(=O)[C@H](CC(C)C)NC(=O)[C@H](CCCNC(=N)N)NC(=O)[C@H](CCCNC(=N)N)NC(=O)[C@H]([C@@H](C)O)NC(=O)[C@H](CO)NC(=O)[C@H](CC(C)C)NC(=O)[C@H](CC(=O)O)NC(=O)[C@H](Cc2ccccc2)NC(=O)[C@H](CCC(N)=O)NC1=O | 15 | 0.011 | ~2.3 | – |
| CC(=O)N[C@H]1CSSC[C@@H](C(=O)NCC(=O)NCC(=O)N[C@@H](CO)C(=O)N[C@@H](CCCCN)C(=O)O)NC(=O)[C@H](CCCNC(=N)N)NC(=O)[C@H](CC(C)C)NC(=O)[C@H](CCCNC(=N)N)NC(=O)[C@H](CCCNC(=N)N)NC(=O)[C@H]([C@@H](C)O)NC(=O)[C@H](CO)NC(=O)[C@H](CC(C)C)NC(=O)[C@H](CC(=O)O)NC(=O)[C@H](Cc2ccccc2)NC(=O)[C@H](CCC(N)=O)NC1=O | – | 0.010 | – | – |
| CC(C)C[C@@H]1NC(=O)[C@H](CCCNC(=N)N)NC(=O)[C@H](CCCNC(=N)N)NC(=O)[C@H]([C@@H](C)O)NC(=O)[C@H](CO)NC(=O)[C@H](CC(C)C)NC(=O)[C@H](CC(=O)O)NC(=O)[C@H](Cc2ccccc2)NC(=O)[C@H](CCC(N)=O)NC(=O)CCSSC[C@@H](C(=O)O)NC(=O)[C@H](CCCCN)NC1=O | 2.1 | 0.012 | – | ~4.4 |
